Experiments:
[1] = molecular target: PDK1 (Homo sapiens (Human), UniProt O15530); assay: PDK1 kinase assay (coupled PDK1/AKT/FAM-crosstide assay, IMAP fluorescence polarization); type: biochemical; details: inhibition of phospo-PDK1 in vitro
Outline: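 GST-tagged human PDK1 (aa 51-359, 0.75 nM) from insect cells activated unphosphorylated GST-AKT2 (aa 140-467–PIFtide fusion, 10 nM), which phosphorylated 100 nM FAM-crosstide; 40 μM ATP, pH 7.2 Tris/MgCl2, 30 min at 25° C. IMAP fluorescence polarization read-out; ΔmP versus compound concentration fitted with a 4-parameter curve.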

[2] = tested on: phospho-akt (Thr308) in PC-3 cells; assay: Inhibition of phospho-akt (Thr308) in PC-3 cells, MSD phospho-akt 308 ELISA kit; type: cell-based; details: Homo sapiens; inhibition of P308 Akt in PC-3 cells, 2 hours, no serum, MSD; read-out: EC50
Outline: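 Read-out is MSD electrochemiluminescence of Akt phosphorylated at Thr308 in lysates of PC-3 cells treated 2 h with compound in serum-free medium. Wortmannin at 5 μM defined the low control and DMSO the high control.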

PDK1, sequence (O15530 51-359): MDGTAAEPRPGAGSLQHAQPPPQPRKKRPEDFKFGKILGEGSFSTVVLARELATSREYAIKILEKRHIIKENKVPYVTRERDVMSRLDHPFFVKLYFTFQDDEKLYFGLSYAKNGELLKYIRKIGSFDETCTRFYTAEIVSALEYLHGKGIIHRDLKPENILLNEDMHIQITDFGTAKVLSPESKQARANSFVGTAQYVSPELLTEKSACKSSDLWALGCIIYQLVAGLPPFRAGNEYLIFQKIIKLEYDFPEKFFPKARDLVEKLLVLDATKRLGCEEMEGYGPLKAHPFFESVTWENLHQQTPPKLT

SMILES	IC50 [1] [nM]	EC50 [2] [nM]
C[C@H](NC(=O)c1cc(C(F)(F)F)cnc1NC/C=C/c1ccc2c(c1)NC(=O)/C2=C\c1cnc[nH]1)c1ccc(F)c(F)c1 [Example 15.2, 2-((E)-3-((Z)-3-((1H-imidazol-5-yl)methylene)-2-oxoindolin-6-yl)allylamino)-N-((S)-1-(3,4-difluorophenyl)ethyl)-5-(trifluoromethyl)nicotinamide]	100 to 1000	< 1000
C[C@H](NC(=O)c1cc(C#N)cnc1NC/C=C/c1ccc2c(c1)NC(=O)C2)c1ccc(F)cc1 [Example 15.3, (S,E)-5-cyano-N-(1-(4-fluorophenyl)ethyl)-2-(3-(2-oxoindolin-6-yl)allylamino)nicotinamide]	> 5000	> 10000
Cc1[nH]c(/C=C2\C(=O)Nc3cc(/C=C/CNc4ncccc4C(=O)NCc4ccc(F)c(F)c4)ccc32)c(C)c1C(=O)O [Example 15.6]	> 5000	< 1000
CCc1nc(C)c(/C=C2\C(=O)Nc3cc(/C=C/CNc4ncccc4C(=O)NCc4ccc(F)c(F)c4)ccc32)[nH]1 [Example 15.11, N-(3,4-Difluoro-benzyl)-2-((E)-3-{3-[1-(2-ethyl-5-methyl-3H-imidazol-4-yl)-meth-(Z)-ylidene]-2-oxo-2,3-dihydro-1H-indol-6-yl}-allylamino)-nicotinamide]	< 100	< 1000
O=C1Nc2cc(/C=C/CNc3ncccc3C(=O)NCc3ccc(F)c(F)c3)ccc2/C1=C/c1ncc[nH]1 [Example 15.12, N-(3,4-Difluoro-benzyl)-2-((E)-3-{3-[1-(1H-imidazol-2-yl)-meth-(Z)-ylidene]-2-oxo-2,3-dihydro-1H-indol-6-yl}-allylamino)-nicotinamide]	< 100	1000 to 10000
Cc1nc(/C=C2\C(=O)Nc3cc(/C=C/CNc4ncccc4C(=O)NCc4ccc(F)c(F)c4)ccc32)[nH]c1C [Example 15.13, N-(3,4-Difluoro-benzyl)-2-((E)-3-{3-[1-(4,5-dimethyl-1H-imidazol-2-yl)-meth-(Z)-ylidene]-2-oxo-2,3-dihydro-1H-indol-6-yl}-allylamino)-nicotinamide]	< 100	1000 to 10000
Cc1nc(C)c(/C=C2\C(=O)Nc3cc(/C=C/CNc4ncccc4C(=O)NCc4ccc(F)c(F)c4)ccc32)[nH]1 [Example 15.14, N-(3,4-Difluoro-benzyl)-2-((E)-3-{3-[1-(2,5-dimethyl-3H-imidazol-4-yl)-meth-(Z)-ylidene]-2-oxo-2,3-dihydro-1H-indol-6-yl}-allylamino)-nicotinamide]	< 100	< 1000
O=C1Nc2cc(/C=C/CNc3ncccc3C(=O)NCc3cncc(F)c3)ccc2/C1=C/c1cnc[nH]1 [Example 15.15, 2-((E)-3-((Z)-3-((1H-imidazol-5-yl)methylene)-2-oxoindolin-6-yl)allylamino)-N-((5-fluoropyridin-3-yl)methyl) nicotinamide]	< 100	< 1000
N#Cc1cnc(NC/C=C/c2ccc3c(c2)NC(=O)/C3=C\c2cnc[nH]2)c(C(=O)O)c1 [Example 15.16, 2-((E)-3-((Z)-3-((1H-imidazol-5-yl)methylene)-2-oxoindolin-6-yl)allylamino)-5-cyanonicotinic acid]	100 to 1000	> 10000
CCN(CC)CCNC(=O)c1c(C)[nH]c(/C=C2\C(=O)Nc3cc(/C=C/CNc4ncccc4C(=O)NCc4ccc(F)c(F)c4)ccc32)c1C [Example 15.17, 2-((E)-3-((Z)-3-((4-(2-(diethylamino)ethylcarbamoyl)-3,5-dimethyl-1H-pyrrol-2-yl)methylene)-2-oxoindolin-6-yl)allylamino)-N-(3,4-difluorobenzyl)nicotinamide]	< 100	1000 to 10000
Cc1[nH]c(/C=C2\C(=O)Nc3cc(/C=C/CNc4ncccc4C(=O)NCc4ccc(F)c(F)c4)ccc32)c(C)c1C(=O)N1CCOCC1 [Example 15.18, N-(3,4-Difluoro-benzyl)-2-((E)-3-{3-[1-[3,5-dimethyl-4-(morpholine-4-carbonyl)-1H-pyrrol-2-yl]-meth-(Z)-ylidene]-2-oxo-2,3-dihydro-1H-indol-6-yl}-allylamino)-nicotinamide]	< 100	< 1000

More lines, now with the values ahead:

IC50 [1] [nM]	EC50 [2] [nM]	SMILES
< 100	1000 to 10000	Cn1nc(Nc2ncccc2C(=O)NCc2ccc(F)c(F)c2)c2cc(-c3c[nH]c4ncccc34)ccc21 [Example 14.1, N-(3,4-difluorobenzyl)-2-(1-methyl-5-(1H-pyrrolo[2,3-b]pyridin-3-yl)-1H-indazol-3-ylamino)nicotinamide]
< 100	> 10000	Cn1nc(Nc2ncccc2C(=O)NCc2ccc(F)c(F)c2)c2cc(-c3ccc4ncnc(N)c4c3)ccc21 [Example 14.2, 2-(5-(4-aminoquinazolin-6-yl)-1-methyl-1H-indazol-3-ylamino)-N-(3,4-difluorobenzyl)-nicotinamide]
< 100	< 1000	O=C1Nc2cc(/C=C/CNc3ncccc3C(=O)NCc3ccc(F)c(F)c3)ccc2/C1=C/c1cnc[nH]1 [Example 15.1, 2-((E)-3-((Z)-3-((1H-imidazol-5-yl)methylene)-2-oxoindolin-6-yl)allylamino)-N-(3,4-difluorobenzyl)nicotinamide]
< 100	< 1000	C[C@H](NC(=O)c1cc(C#N)cnc1NC/C=C/c1ccc2c(c1)NC(=O)/C2=C\c1cnc[nH]1)c1ccc(F)cc1 [Example 15.4, 2-((E)-3-((Z)-3-((1H-imidazol-5-yl)methylene)-2-oxoindolin-6-yl)allylamino)-5-cyano-N-((S)-1-(4-fluorophenyl)ethyl)nicotinamide]
< 100	< 1000	C[C@H](NC(=O)c1cccnc1NC/C=C/c1ccc2c(c1)NC(=O)/C2=C\c1cnc[nH]1)c1ccc(F)c(F)c1 [Example 15.5, 2-((E)-3-((Z)-3-((1H-imidazol-5-yl)methylene)-2-oxoindolin-6-yl)allylamino)-N-((S)-1-(3,4-difluorophenyl)ethyl)nicotinamide]
< 100	< 1000	Cc1nc[nH]c1/C=C1\C(=O)Nc2cc(/C=C/CNc3ncccc3C(=O)NCc3ccc(F)c(F)c3)ccc21 [Example 15.7, N-(3,4-Difluoro-benzyl)-2-((E)-3-{3-[1-(5-methyl-3H-imidazol-4-yl)-meth-(Z)-ylidene]-2-oxo-2,3-dihydro-1H-indol-6-yl}-allylamino)-nicotinamide]
< 100	< 1000	Cc1nc(/C=C2\C(=O)Nc3cc(/C=C/CNc4ncccc4C(=O)NCc4ccc(F)c(F)c4)ccc32)c[nH]1 [Example 15.8, N-(3,4-Difluoro-benzyl)-2-((E)-3-{3-[1-(2-methyl-1H-imidazol-4-yl)-meth-(Z)-ylidene]-2-oxo-2,3-dihydro-1H-indol-6-yl}-allylamino)-nicotinamide]
< 100	1000 to 10000	Cc1cnc(/C=C2\C(=O)Nc3cc(/C=C/CNc4ncccc4C(=O)NCc4ccc(F)c(F)c4)ccc32)[nH]1 [Example 15.9, N-(3,4-Difluoro-benzyl)-2-((E)-3-{3-[1-(5-methyl-1H-imidazol-2-yl)-meth-(Z)-ylidene]-2-oxo-2,3-dihydro-1H-indol-6-yl}-allylamino)-nicotinamide]
< 100	< 1000	Cc1n[nH]cc1/C=C1\C(=O)Nc2cc(/C=C/CNc3ncccc3C(=O)NCc3ccc(F)c(F)c3)ccc21 [Example 15.10, N-(3,4-Difluoro-benzyl)-2-((E)-3-{3-[1-(3-methyl-1H-pyrazol-4-yl)-meth-(Z)-ylidene]-2-oxo-2,3-dihydro-1H-indol-6-yl}-allylamino)-nicotinamide]
